Test results from patent publication US20060167106A1, “Compounds acting at the centrosome” (priority 2004, published 2006).
“Also recorded” adds a separate entry of the source. Non-standard residues stand in square brackets, D forms with d. Residues, ends and D or L forms follow the SMILES beside them. *: point of attachment. Nle = CCCC[C@H](N)C(=O)O; Cbz = O=C(OCc1ccccc1)*

Legend:
[1] = test system: CHO-α-tubulin-YFP cells; test: α-tubulin-YFP localization in CHO-α-tubulin-YFP cells (fluorescence imaging); format: cell-based, Chinese hamster; conditions: for accumulation of α-tubulin-YFP at the centrosomes: 5 hours; for accumulation of tubulin-YFP at the centrosomes: 24 hours; for accumulation of tubulin in the centrosomes (overall statement): CHO-tubulin-YFP cells, concentration and time not given; for accumulation of tubulin at the centrosomes versus in the nucleus (overall statement): cells treated, concentration not given
From the text: Wild-type Chinese Hamster Ovary cells (WT CHO) cells were maintained in Ham's F-12 medium supplemented with 10% fetal bovine serum (FBS; HyClone, Logan, Utah). Cells of low density (˜20%) growing on 2-well chambered cover-slips (Labtek (Campbell, Calif.) or Fisher Scientific) were transfected with a mammalian expression vector encoding α-tubulin-YFP (Clontech, Palo Alto, Calif.) with the use of FuGENE 6 (Roche Molecular Biochemicals, Indianapolis, Ind.), according to the manufacturer's instructions. Twenty-four hours after transfection, the cells were cultured in 400 μg/ml G418 (Invitrogen, Carlsbad, Calif.)-containing selection medium for 2 weeks. Living cells were examined using a fluorescent microscope for α-tubulin-YFP expression. Cells in single colonies containing microtubules labeled with α-tubulin-YFP were lifted and expanded in G418-containing medium. Expression of α-tubulin-YFP was confirmed by the presence of the tubulin-YFP labeled microtubule pattern identical to immunostained microtubule pattern of non-transfected cells, as well as by subjecting the cells to Western blot analysis using an anti-GFP antibody (Roche Molecular Biochemicals, Basel, Switzerland) and confirming the correct mass of the α-tubulin-YFP chimera protein. Expressed tubulin-YFP was detected as a single band in Western blots. The tubulin-YFP expressing cell lines (referred as CHO-α-tubulin-YFP cells) were used in the studies.
CHO-α-tubulin-YFP cells were cultured in 2-well chambered cover-slips (Labtek (Campbell, Calif.) or Fisher Scientific) 24 hours before treatment. For comparison of the centrosomal effects of treatment with Compound 1, Compound 1+Taxol, and Taxol, CHO-α-tubulin-YFP cells were treated with Compound 1, Compound 1+Taxol, Taxol, or equivalent concentrations of DMSO-containing media for various time periods before imaging. For comparison of the effects of Compound 1 and known proteasome inhibitors on centrosomes, the nucleus, and perinuclear regions, CHO-α-tubulin-YFP cells were treated with Compound 1, ALLN (Calbiochem, San Diego, Calif.), lactacystin (Calbiochem, San Diego, Calif.) or MG132 (Calbiochem, San Diego, Calif.), and imaged at various time points from 3 hours to 24 hours after treatment.
Tubulin-YFP fluorescence in living cells or fixed cells was captured using a standard filter for FITC and objectives of 20× or 60× magnification on a Nikon TE300 microscope with a Leica DC50 color digital camera (Leica, Bannockburn, Ill.) or a CoolSnap HQ Monochrome CCD camera (Photonetrics, Tucson, Ariz.). The Leica DC50 and CoolSnapHQ cameras were controlled with Leica DC50 software and MetaVue/MetaMorph software, respectively (Universal Imaging Corp, Downingtown, Pa.).
CHO-α-tubulin-YFP cells were cultured in 2-well chambered cover-slips (Labtek (Campbell, Calif.) or Fisher Scientific) 24 hours before treatment. For comparison of effects on the centrosome, nucleus, and perinuclear regions, cells were treated with Compound 1 and known proteasome inhibitors including ALLN, MG132, Lactacystin, MG115, clasto-Lactacystin β-Lactone (cLβL), and Epoxomicin (10 μM final concentration for all except ALLN, which was used at 100 μM final concentration) (proteasome inhibitors were from Calbiochem, San Diego, Calif.) and imaged at various time points up to 24 hours during treatment.
Tubulin-YFP fluorescence in living cells or fixed cells was captured using a standard filter for FITC and objectives of 20× or 60× magnification on the Nikon TE300 microscope/digital imaging system.

[2] = biological target: T1, bovine red blood cell 20S proteasome (Bos taurus, UniProt Q32KL2); test: 20S Proteasome Assay (in vitro, Suc-Leu-Val-Tyr-AMC); format: biochemical; conditions: isolated 20S proteasome
T1 construct: bovine red blood cell 20S proteasome; purchased Calbiochem; host or cells: purified from bovine red blood cells
Description: 190 μl of reaction buffer (500 mM HEPES, 10 nM EDTA, pH 7.6), containing 0.03% SDS was pre-incubated for 5 minutes at 37° C. in the presence of 0.2 μg of bovine red blood cell 20S proteasome (Calbiochem, San Diego, Calif.) for temperature equilibration. Subsequently, inhibitors or Compound 1 were added to the reaction mixture at a final DMSO concentration of 0.5%. The reaction was initiated by adding 10 μl of the peptide-AMC substrate (Calbiochem, San Diego, Calif.) to each well. The emitted fluorescence was then measured every third minute at 37° C. for 90 minutes by a fluorescence plate reader (FlexStation II, Molecular Devices, Sunnyvale, Calif.) at 460 nm (λex360 nm) wavelength.
The buffers and reagents for the assay were purchased from Calbiochem (20S Proteasome Assay Kit; Calbiochem, San Diego, Calif.). The principle of the assay is that the release of free AMC (7-Amino-4-methylcoumarin) following degradation of the substrate results in a fluorescent signal that is a measure of proteasome activity. The quantitative analysis of 20S proteasome activity was assayed as described.

[3] = test system: Hsp70; test: Hsp70 Western blotting in MDA-435 cells; format: cell-based; conditions: 0.5 μM; for induction of Hsp70 expression: 6 and 24 hours; for percentage change in Hsp70 expression relative to DMSO control: normalized to background and GAPDH
Description: Calculations of the percentage changes were made by using the automated band analysis tools of the Kodak 1D (v.3.6.3) program. Band intensities were normalized to background and GAPDH.
MDA-435 breast cancer cells were grown in 100 mm plastic-tissue culture dishes and treated for 6 and 24 hours with 0.5 μM Taxol, Compound 1, Taxol+Compound 1, MG132, ALLN, or DMSO. After treatment, cells were washed in PBS and cell lysates were prepared by adding 100 μL of lysis buffer, which contained 20 mM Tris-HCl (pH 7.5), 150 mM NaCl, 1 mM Na2EDTA, 1 mM EGTA, 1% Triton, 2.5 mM sodium pyrophosphate, 1 mM β-glycerophosphate, 1 mM Na3VO4 and 1 μg/ml leupeptin (Cell Signaling Technology, Beverly, Mass.) supplemented with 1 mM PMSF (Sigma, St. Louis, Mo.) immediately before use, on ice for 1 hour. After scraping, the lysates were cleared by centrifugation at 13,000 RPM for 10 minutes at 4° C. Protein content was determined using a Bradford assay and bovine serum albumin as a standard (Bio-Rad Laboratories, Hercules, Calif.). Samples were solubilized by boiling in SDS sample buffer and subjected to SDS-PAGE. The proteins were subsequently transferred to a PVDF membrane (Bio-Rad, Hercules, Calif.). After blocking with 5% nonfat milk in TBS for 1 hour, the blots were incubated with a mouse monoclonal anti-Hsp70 antibody, which is specific for the inducible form of Hsp70 (Clone C92F3A-5, 1:1000 dilution, Stressgen Biotechnologies Corp., Victoria, B.C., Canada) or a rabbit polyclonal anti-GAPDH antibody (1:2000 dilution, Abcam, Cambridge, Mass.) for 2 hours at room temperature. The horseradish-peroxidase-conjugated secondary antibodies, anti-mouse horse radish peroxidase, (1:2000, Bio-Rad, Hercules, Calif.) and goat anti-rabbit polyclonal horse radish peroxidase (1:2000, Abcam, Cambridge, Mass.)) were diluted in blocking buffer and incubated with the blot for 1 hour at room temperature. The secondary antibodies were detected by enhanced chemiluminescence (ECL, Amersham Biosciences, Piscataway, N.J.) and imaged using a Kodak 440 Image Station.

[4] = test system: MDA-435 breast cancer cells; test: Multi-ubiquitin Western blotting in MDA-435 cells; format: cell-based; conditions: for increase of ubiquitinated proteins of the cell lysates: 500 nM
Description: Louis, Mo.) immediately before use, on ice for 1 hour. After scraping, the lysates were cleared by centrifugation at 13,000 RPM for 10 minutes at 4° C. Protein content was determined using a Bradford assay and bovine serum albumin as a standard (Bio-Rad Laboratories, Hercules, Calif.). Samples were solubilized by boiling in SDS sample buffer and subjected to SDS-PAGE. The proteins were subsequently transferred to a PVDF membrane (Bio-Rad, Hercules, Calif.). […] The alkaline phosphatase-conjugated secondary antibodies (Invitrogen, Carlsbad, Calif.) were diluted in blocking buffer and incubated with the blot for 1 hour at room temperature. The secondary antibodies were detected by the Western Breeze Chemiluminescent Kit (Invitrogen, Carlsbad, Calif.) and imaged using a Kodak 440 Image Station. Proteins targeted for degradation by the ubiquitin-dependent proteolytic pathway are tagged with multi-ubiquitin molecules. […] In this assay, accumulation of multi-ubiquitinated proteins in the cells is indicative of the impairment of proteasome activity.

SMILES | accumulation of α-tubulin-YFP at the centrosomes ([1]; CHO cells, 100 μM) | accumulation of YFP-tubulin in the nucleus ([1]; CHO cells, 100 μM, 8 hours post-treatment) | accumulation of tubulin-YFP at the centrosomes ([1]; CHO cells, 100 μM) | accumulation of tubulin in the centrosomes (overall statement) [1] | accumulation of tubulin at the centrosomes versus in the nucleus (overall statement) [1] | proteasome inhibitory activity in vitro (overall statement) [2] | induction of Hsp70 expression [3] | percentage change in Hsp70 expression relative to DMSO control ([3]; 6 hours of treatment) | percentage change in Hsp70 expression relative to DMSO control ([3]; 24 hours of treatment) | accumulation of α-tubulin-YFP at the centrosomes ([1]; CHO cells, 10 μM) | accumulation of α-tubulin-YFP in the nucleus ([1]; CHO cells, 10 μM, 8 hours post-treatment) | accumulation of tubulin-YFP at the centrosomes ([1]; CHO cells, 10 μM) | proteasome activity in vitro ([2]; 5 nM) | increase of ubiquitinated proteins of the cell lysates ([4]; 6 hours of treatment in cell culture) | increase of ubiquitinated proteins of the cell lysates ([4]; 24 hours of treatment in cell culture) | accumulation of multi-ubiquitinated proteins ([4]; MDA-435 cells, 0.5 μM, 6 and 24 hours)
CCCC[C@@H](C=O)NC(=O)[C@H](CC(C)C)NC(=O)[C@H](CC(C)C)NC(C)=O [ALLN] (Ac-Leu-Leu-[Nle]-aldehyde) | accumulation of α-tubulin-YFP at the centrosomes and perinuclear regions | caused the accumulation of YFP-tubulin in the nucleus | accumulation of tubulin-YFP at the centrosomes | caused accumulation of tubulin-YFP at the centrosomes and in the perinuclear region | both accumulation of tubulin at the centrosomes and in the nucleus | exhibited proteasome inhibitory activity | unable to induce expression of Hsp70; also recorded: not capable of inducing Hsp70 expression | 82% | 137% | – | – | – | – | – | – | –
CC(C)C[C@@H](C=O)NC(=O)[C@H](CC(C)C)NC(=O)[C@H](CC(C)C)NC(=O)OCc1ccccc1 [MG132] (Cbz-Leu-Leu-Leu-aldehyde) | – | – | – | caused accumulation of tubulin-YFP at the centrosomes and in the perinuclear region | both accumulation of tubulin at the centrosomes and in the nucleus | exhibited proteasome inhibitory activity | not as potent an inducer as Compound 1; also recorded: also induced Hsp70 expression after 6 and 24 hours of treatment, but did so less potently than Compound 1 or Compound 1+Taxol | 472% | 3016% | accumulation of α-tubulin-YFP at the centrosomes and perinuclear regions | accumulation of α-tubulin-YFP in the nucleus; also recorded: caused the accumulation of YFP-tubulin in the nucleus | accumulation of tubulin-YFP at the centrosomes | detectable decrease in proteasome activity | 212.58 | 357.82 | caused similar accumulation of multi-ubiquitinated proteins
